Test results: US4474766A, “Anti-inflammatory/analgesic combination of cyclo-(N-methyl-Ala-Tyr-D-Trp-Lys-Val-Phe) and a selected non-steroidal anti-inflammatory drug (NSAID)” (Merck & Co., Inc., priority 1983, dated 1984)

System: NSAID-induced gastric ulcers
Assay: NSAID-Induced Ulcers in the Sprague-Dawley Rat (gastric ulcer assay)
Type: in vivo
Parameters: Inhibition of Gastric Ulcers: unit not given here
Text: When a selected NSAID, for example, indomethacin, is combined with cyclo-(N-methyl-Ala-Tyr-D-Trp-Lys-Val-Phe) according to the present invention, the following results are obtained from the well-established gastric ulcer assay in the Sprague-Dawley male rat is described below:
Protocol: NSAID-Induced Ulcers in the Sprague-Dawley Rat
Twenty-four (24) hour fasted, male, Sprague-Dawley rats, 130 to 150 gms. each, are randomized into groups for assay. The animals are housed to wire-bottom cages without bedding and allowed free-access to water throughout the fasting and experimental periods. Ulcers are then induced by the peroral administration of NSAID at dose levels predetermined to provoke a similar number of ulcers within 4 hours of additional fasting*. Each NSAID is prepared in 0.5% methyl cellulose vehicle and given at a volume of 10 ml/kg rounded to the nearest 0.1 ml. Either 0.5% methylcellulose vehicle or compound A is co-administered perorally with the NSAID bringing the total volume to 20 ml/kg rounded to the nearest 0.2 ml.
*For example: Indomethacin-20 mg/kg; Naproxen-50 mg/kg; Ibuprofen-100 mg/kg; Diclofenac-75 mg/kg.
Four (4) hours after the administration of NSAID+vehicle, or NSAID+compound A, the animals are sacrificed by CO2 inhalation, the stomachs removed, excised along the inner curvature, washed carefully with cool tap water and placed in 0.9% saline. When all groups have been processed, the mucosal region of the stomachs are examined under a magnifying lens and scored according to the total number of lesions present. Group scores represent the mean score of animals in that group. P values are determined by Student's "t" test, comparing the ulcer scores of individual rats given NSAID+compound A to those dosed with NSAID+vehicle only.

[1] = Compound A 0.01 mg/kg p.o. co-administered with Diclofenac 75 mg/kg p.o., 4 h
[2] = Compound A 0.01 mg/kg p.o. co-administered with Ibuprofen 100 mg/kg p.o., 4 h
[3] = Compound A 0.01 mg/kg p.o. co-administered with Indomethacin 20 mg/kg p.o., 4 h
[4] = Compound A 0.01 mg/kg p.o. co-administered with Naproxen 50 mg/kg p.o., 4 h
[5] = Compound A 0.1 mg/kg p.o. co-administered with Diclofenac 75 mg/kg p.o., 4 h
[6] = Compound A 0.1 mg/kg p.o. co-administered with Ibuprofen 100 mg/kg p.o., 4 h
[7] = Compound A 0.1 mg/kg p.o. co-administered with Indomethacin 20 mg/kg p.o., 4 h
[8] = Compound A 0.1 mg/kg p.o. co-administered with Naproxen 50 mg/kg p.o., 4 h
[9] = Compound A 1.0 mg/kg p.o. co-administered with Diclofenac 75 mg/kg p.o., 4 h
[10] = Compound A 1.0 mg/kg p.o. co-administered with Ibuprofen 100 mg/kg p.o., 4 h
[11] = Compound A 1.0 mg/kg p.o. co-administered with Indomethacin 20 mg/kg p.o., 4 h
[12] = Compound A 1.0 mg/kg p.o. co-administered with Naproxen 50 mg/kg p.o., 4 h

**Q.** Which results are given for `O=C(O)Cc1ccccc1Nc1c(Cl)cccc1Cl` [Diclofenac, diclofenac, reference compound]?
**A.** Inhibition of Gastric Ulcers (Diclofenac 75 mg/kg p.o. + vehicle (control), 4 h): 0; No. of Gastric Ulcers M ± S.E.M. (Diclofenac 75 mg/kg p.o. + vehicle (control), fasted male rats, 4 h after dosing): 14.0 ± 1.6

**Q.** How did the “Inhibition of Gastric Ulcers” value [1] turn out when “cyclo-(N-methyl-Ala-Tyr-D-Trp-Lys-Val-Phe) [Compound A]” was run?
**A.** Its value is 0.

**Q.** What about the “No. of Gastric Ulcers M ± S.E.M.” value [1] of the same compound?
**A.** The value was 18.7 ± 2.0.

**Q.** What about the “Inhibition of Gastric Ulcers” value [2] of the same compound?
**A.** Its value is 36.4.

**Q.** And the “No. of Gastric Ulcers M ± S.E.M.” value [2]?
**A.** The value was 8.2 ± 1.0.

**Q.** And the “Inhibition of Gastric Ulcers” value [3]?
**A.** Its value is 0.

**Q.** What about the “No. of Gastric Ulcers M ± S.E.M.” value [3] of the same compound?
**A.** The value was 18.6 ± 4.4.

**Q.** And the “Inhibition of Gastric Ulcers” value [4]?
**A.** Its value is 0.

**Q.** What about the “No. of Gastric Ulcers M ± S.E.M.” value [4] of the same compound?
**A.** Its value is 14.0 ± 3.0.

**Q.** And the “Inhibition of Gastric Ulcers” value [5]?
**A.** Its value is 47.9.

**Q.** And the “No. of Gastric Ulcers M ± S.E.M.” value [5]?
**A.** The value was 7.3 ± 2.3.

**Q.** And the “Inhibition of Gastric Ulcers” value [6]?
**A.** The value was 87.6.

**Q.** What about the “No. of Gastric Ulcers M ± S.E.M.” value [6] of the same compound?
**A.** The value was 1.6 ± 0.6.

**Q.** What about the “Inhibition of Gastric Ulcers” value [7] of the same compound?
**A.** Its value is 50.3.

**Q.** What about the “No. of Gastric Ulcers M ± S.E.M.” value [7] of the same compound?
**A.** The value was 9.0 ± 1.9.

**Q.** What about the “Inhibition of Gastric Ulcers” value [8] of the same compound?
**A.** The value was 67.7.

**Q.** And the “No. of Gastric Ulcers M ± S.E.M.” value [8]?
**A.** Its value is 5.0 ± 2.5.

**Q.** And the “Inhibition of Gastric Ulcers” value [9]?
**A.** The value was 99.3.

**Q.** What about the “No. of Gastric Ulcers M ± S.E.M.” value [9] of the same compound?
**A.** Its value is 0.1 ± 0.1.

**Q.** And the “Inhibition of Gastric Ulcers” value [10]?
**A.** The value was 92.3.

**Q.** What about the “No. of Gastric Ulcers M ± S.E.M.” value [10] of the same compound?
**A.** The value was 1.0 ± 0.5.

**Q.** And the “Inhibition of Gastric Ulcers” value [11]?
**A.** The value was 83.4.

**Q.** And the “No. of Gastric Ulcers M ± S.E.M.” value [11]?
**A.** Its value is 3.0 ± 1.3.

**Q.** What about the “Inhibition of Gastric Ulcers” value [12] of the same compound?
**A.** The value was 83.9.

**Q.** What about the “No. of Gastric Ulcers M ± S.E.M.” value [12] of the same compound?
**A.** Its value is 2.5 ± 1.4.

**Q.** Which “Inhibition of Gastric Ulcers” value (Indomethacin 20 mg/kg p.o. + vehicle (control), 4 h) does the source give for `COc1ccc2c(c1)c(CC(=O)O)c(C)n2C(=O)c1ccc(Cl)cc1` [Indomethacin, indomethacin, reference compound] here?
**A.** Its value is 0.

**Q.** And the “No. of Gastric Ulcers M ± S.E.M.” value (Indomethacin 20 mg/kg p.o. + vehicle (control), fasted male rats, 4 h after dosing)?
**A.** The value was 18.1 ± 1.6.

**Q.** With `COc1ccc2cc([C@H](C)C(=O)O)ccc2c1` [Naproxen, naproxen, reference compound] as the compound, how does the “Inhibition of Gastric Ulcers” value (Naproxen 50 mg/kg p.o. + vehicle (control), 4 h) read?
**A.** Its value is 0.

**Q.** Which “Inhibition of Gastric Ulcers” value (Ibuprofen 100 mg/kg p.o. + vehicle (control), 4 h) does the source give for `CC(C)Cc1ccc(C(C)C(=O)O)cc1` (stereo not drawn) [Ibuprofen, ibuprofen, reference compound] here?
**A.** The value was 0.
